Data: US6365634B1, “Naturally occurring compounds and their derivatives as cyclooxygenase 2 and/or 5-lipoxygenase inhibitors” (C-P Technology Limited Partnership, priority 1997, dated 2002)

Experiments:
human recombinant COX II = molecular target: T1, human recombinant COX II (Homo sapiens, UniProt P35354); assay: COX II biochemical assay (3H-arachidonic acid conversion, TLC quantitation)
T1 construct: purchased Oxford Chemical
T1 sequence (P35354 18-604): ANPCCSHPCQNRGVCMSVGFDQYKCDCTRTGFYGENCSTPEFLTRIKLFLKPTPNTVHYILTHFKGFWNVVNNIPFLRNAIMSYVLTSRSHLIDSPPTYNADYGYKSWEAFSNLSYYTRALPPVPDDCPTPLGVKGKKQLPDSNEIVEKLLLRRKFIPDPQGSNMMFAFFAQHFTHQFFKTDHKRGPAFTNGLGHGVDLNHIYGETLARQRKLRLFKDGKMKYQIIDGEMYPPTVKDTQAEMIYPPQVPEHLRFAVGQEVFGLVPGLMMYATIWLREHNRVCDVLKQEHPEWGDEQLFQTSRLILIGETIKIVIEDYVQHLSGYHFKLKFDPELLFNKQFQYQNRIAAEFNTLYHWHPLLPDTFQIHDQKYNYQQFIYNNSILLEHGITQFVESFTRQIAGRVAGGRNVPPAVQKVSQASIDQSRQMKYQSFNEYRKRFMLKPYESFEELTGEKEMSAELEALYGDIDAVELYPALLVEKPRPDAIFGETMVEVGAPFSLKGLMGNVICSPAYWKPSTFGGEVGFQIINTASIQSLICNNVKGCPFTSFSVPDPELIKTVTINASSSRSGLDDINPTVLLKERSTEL
Method: Two units of recombinant COX II enzyme (corresponding to 0.8 ug total protein) was added followed by 5 uL aliquots of the peat bog extracts yielding a final concentration of the peat extracts of 25 ug/ml. All samples were run in duplicate. […] Reactions were initiated by the addition of ^3H-arachidonic acid (DuPont-NEN) at a final concentration of 50 uM. The reactions were maintained for 5 minutes at 37° C. and stopped by the addition of ice-cold methanol/acetic acid (10:1 v/v).
The assessment of cyclooxygenase activity (both COX I and II) in the presence and absence of the peat bog extracts was based on the quantitation of tlhe radiolabeled arachidonic acid metabolites prostaglandin A2 (PGA2), PGE2, and PGF2-alpha. To do this, a 50 uL sample of each reaction solution was separated via TLC on LK6DF silica plates co-spotted with arachidonic acid, PGA2, and PGF2-alpha and developed in hexane/isopropyl alcohol/ acetic acid (85:15:1 v/v). The bands were visualized by UV-vis or I2 staining and scraped into scintillation vials for quantitation. […] The total enzyme activity (At), the corrected enzyme activity in the presence of an inhibitor (Ai), and % inhibition were calculated by the following equations:
3) Percent Inhibition=100 (1−Ai/ At)

ovine COX I = molecular target: T2, ovine COX I (Ovis aries, UniProt P05979); assay: COX I biochemical assay (ram seminal vesicle preparation)
T2 construct: a ram seminal vesicle preparation enriched in COX I (Biomol) was used; tissue Biomol; host or cells: ram seminal vesicle
T2 sequence (P05979 25-600): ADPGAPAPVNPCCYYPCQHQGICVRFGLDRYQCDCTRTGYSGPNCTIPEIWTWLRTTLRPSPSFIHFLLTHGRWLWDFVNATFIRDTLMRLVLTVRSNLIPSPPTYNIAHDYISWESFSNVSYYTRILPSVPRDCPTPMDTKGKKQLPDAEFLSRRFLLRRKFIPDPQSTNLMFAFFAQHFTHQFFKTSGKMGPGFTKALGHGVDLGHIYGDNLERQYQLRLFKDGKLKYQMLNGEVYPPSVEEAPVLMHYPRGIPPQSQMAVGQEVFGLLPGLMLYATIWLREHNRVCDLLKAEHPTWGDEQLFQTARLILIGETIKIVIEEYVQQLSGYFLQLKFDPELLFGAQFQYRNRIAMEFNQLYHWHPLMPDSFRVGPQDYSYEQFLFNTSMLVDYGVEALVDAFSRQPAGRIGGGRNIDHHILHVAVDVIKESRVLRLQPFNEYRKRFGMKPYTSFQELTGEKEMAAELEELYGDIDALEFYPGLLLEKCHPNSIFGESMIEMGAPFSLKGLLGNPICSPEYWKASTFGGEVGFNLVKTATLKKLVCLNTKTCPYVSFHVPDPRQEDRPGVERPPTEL
Method: Both the COX I and COX II assays were performed using modified versions of previously reported methods (Corey, E. J., Shih, C., and Cashman, J. R., 1983 Proc. Natl. Acad. Sci. v80, p3; Sigal, E., Grunberger, D., Cashman, J. R., Craik, C. S., Caughey, G. H., and Nadel, J. A., 1988 Biochem. Biophys. Res Comm. v150(1), p376). To assess for the presence of compounds in the peat bog extracts that were capable of inhibiting COX II, purified human recombinant COX II (Oxford Chemical) was suspended in 50 uL of COX assay buffer (50 mM Tris, pH 8.0) containing 0.2 mM hydroquinone, 5.0 mM tryptophan, 1.0 uM hematin, and 1.0 mM glutathione. […]
The assessment of cyclooxygenase activity (both COX I and II) in the presence and absence of the peat bog extracts was based on the quantitation of tlhe radiolabeled arachidonic acid metabolites prostaglandin A2 (PGA2), PGE2, and PGF2-alpha. […] The bands were visualized by UV-vis or I2 staining and scraped into scintillation vials for quantitation. […] The total enzyme activity (At), the corrected enzyme activity in the presence of an inhibitor (Ai), and % inhibition were calculated by the following equations: […]
The inhibitory activity of dehydroabietic acid methyl ester was assessed by performing biochemical assays that utilized 1) human recombinant COX II, 2) ovine COX I, and 3) rabbit reticulocyte 15-LO. […]

[1] = pure 4-cumylphenol, assay as Example 2B, concentration not given

Compound	Percent Inhibition of COX II (human recombinant COX II; [1]) [%]	Percent Inhibition of COX I (ovine COX I; [1]) [%]	inhibited COX II preferentially over COX I by (human recombinant COX II; 250 uM, difference of percent inhibition COX II versus COX I)	Percent Inhibition of COX II (human recombinant COX II; final concentration of 250 uM) [%]	Percent Inhibition of COX I (ovine COX I; final concentration of 250 uM) [%]
CC(C)(c1ccccc1)c1ccc(O)cc1 [4-Cumylphenol, 4-cumylphenol]	22.4	1.6	–	–	–
COC(=O)[C@]1(C)CCC[C@]2(C)c3ccc(C(C)C)cc3CC[C@@H]12 [Dehydroabietic acid methyl ester, dehydroabietic acid methyl ester]	–	–	over 30%	31.5	0.2
